For one assay, the system named is SKOV3 cells. The assay is described as follows: GI50 determinations in SKOV3 cells. The format is cell-based. As to conditions: Homo sapiens, SK-OV-3. Here is the method:
GI50 Determinations in SKOV3 Cells
A standard curve ranging from 10,000 to 50,000 cells was set up in a separate plate and allowed to adhere to the plate for 4-6 hours, at which time the plate was developed using Cell Titer-Glow (Promega, Madison, Wis.) according to manufacturer's instructions.
The next morning, 3-fold compound dilutions ranging from 10,000 nM to 40 nM were prepared in Proliferation Media containing 1% DMSO. 20 ul of each dilution was added to the SKOV3 cells plated the previous day resulting in a dose response curve from 1000 nM to 4 nM. The cells were incubated for 96 hours and then developed with Cell Titer Glo.
The cell numbers at the end of the assay were determined using the standard curve generated at the start of the assay. Growth inhibition was calculated using the following formulas and GI50s were determined by plotting the % growth inhibition vs. Log compound concentration in GraphPad.
%growth=100×(T−T0)/(C−T0)
T=Cell Number at end of assay T0=Cell Number at start of assay (5000) C=Number of cells in DMSO controls at end of assay
%growth inhibition=100−%growth

Assay [1] has as its target T1, PI3Kα (Homo sapiens, UniProt P42336). The assay is described as follows: Mass spectrometry of intact PI3Kα (Millipore, 14-602), 1 hr incubation. The format is binding. On the set-up: purchased Millipore 14-602. As to conditions: 10× fold excess of compound, MALDI. Here is the method: Mass Spectrometry for PI3K
Aliquots (5 μl) of the samples were diluted with 15 μl of 0.2% TFA prior to micro C4 ZipTipping directly onto the MALDI target using Sinapinic acid as the desorption matrix (10 mg/ml in 0.1% TFA:Acetonitrile 50:50).

A further assay addresses p110alpha (Homo sapiens, UniProt P42336). The assay is described as follows: In vitro occupancy in SKOV-3 cells with covalent probe. As to conditions: for target occupancy (competition with the covalent probe): covalent probe XIV-a-3 or XIV-a-4. It counts as cell-based.
The subject of a further assay is PI3 kinase. The assay is described as follows: Comparison of covalent and non-covalent inhibitors (Tables 18 and 19): prolonged PD, mechanism. Here is the method: “A” designates ≦10 nM; “B” designates 10-100 nM; and “C” designates 100-1000 nM
Assay [2] relates to Phospho-Akt(Ser473). Description: Dose response in SKOV3 cells as determined by Western blot. The conditions noted are these: Homo sapiens, SK-OV-3, 1 hr, Phospho-Akt normalized to total Akt, read-out: Immunoblot. The format is cell-based. The procedure, abridged: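 SKOV3 cells in DMEM/10% FBS were treated with compound in 0.1% DMSO for 1 hr, then lysed. 50 ug protein was immunoblotted for Phospho-Akt(Ser473) and total Akt with fluorescent read-out. Phospho-Akt was normalized to total Akt and expressed as percent of untreated signal.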

For a further assay, the target named is T2, PI3Kβ (p110β/p85α) (Homo sapiens, UniProt P42338).
T2 construct: purchased BPS Bioscience (San Diego, Calif.) or Millipore (Billerica, Mass.)
T2 sequence (P42338 whole entry): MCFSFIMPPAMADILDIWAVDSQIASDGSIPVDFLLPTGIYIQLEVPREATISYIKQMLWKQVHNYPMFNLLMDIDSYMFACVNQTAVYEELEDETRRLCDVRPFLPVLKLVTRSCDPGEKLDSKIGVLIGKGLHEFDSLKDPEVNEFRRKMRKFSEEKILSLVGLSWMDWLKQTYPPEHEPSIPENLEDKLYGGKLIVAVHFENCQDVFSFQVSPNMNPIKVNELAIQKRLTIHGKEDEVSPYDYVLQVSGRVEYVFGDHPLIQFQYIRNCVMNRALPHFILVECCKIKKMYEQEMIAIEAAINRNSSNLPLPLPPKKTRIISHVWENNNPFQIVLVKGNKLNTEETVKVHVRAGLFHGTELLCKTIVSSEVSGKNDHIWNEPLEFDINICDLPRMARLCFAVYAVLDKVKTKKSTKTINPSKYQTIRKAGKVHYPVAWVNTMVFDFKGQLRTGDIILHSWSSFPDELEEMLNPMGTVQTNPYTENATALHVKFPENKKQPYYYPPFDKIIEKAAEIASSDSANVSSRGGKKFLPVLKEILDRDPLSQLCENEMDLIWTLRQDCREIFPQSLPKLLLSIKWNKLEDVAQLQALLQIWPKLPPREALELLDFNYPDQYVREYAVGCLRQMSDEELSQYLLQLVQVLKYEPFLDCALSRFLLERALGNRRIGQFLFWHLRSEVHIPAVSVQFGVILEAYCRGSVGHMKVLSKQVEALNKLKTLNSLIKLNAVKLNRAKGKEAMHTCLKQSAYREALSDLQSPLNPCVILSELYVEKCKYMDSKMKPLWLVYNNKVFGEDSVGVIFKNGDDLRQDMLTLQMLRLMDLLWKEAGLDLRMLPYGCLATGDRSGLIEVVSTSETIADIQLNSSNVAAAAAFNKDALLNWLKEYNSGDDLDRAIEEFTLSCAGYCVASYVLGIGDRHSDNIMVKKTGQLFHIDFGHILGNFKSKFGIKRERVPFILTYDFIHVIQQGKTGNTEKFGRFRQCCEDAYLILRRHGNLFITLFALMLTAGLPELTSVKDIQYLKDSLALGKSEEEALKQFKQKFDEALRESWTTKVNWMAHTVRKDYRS
T2 sequence (P27986 whole entry partner): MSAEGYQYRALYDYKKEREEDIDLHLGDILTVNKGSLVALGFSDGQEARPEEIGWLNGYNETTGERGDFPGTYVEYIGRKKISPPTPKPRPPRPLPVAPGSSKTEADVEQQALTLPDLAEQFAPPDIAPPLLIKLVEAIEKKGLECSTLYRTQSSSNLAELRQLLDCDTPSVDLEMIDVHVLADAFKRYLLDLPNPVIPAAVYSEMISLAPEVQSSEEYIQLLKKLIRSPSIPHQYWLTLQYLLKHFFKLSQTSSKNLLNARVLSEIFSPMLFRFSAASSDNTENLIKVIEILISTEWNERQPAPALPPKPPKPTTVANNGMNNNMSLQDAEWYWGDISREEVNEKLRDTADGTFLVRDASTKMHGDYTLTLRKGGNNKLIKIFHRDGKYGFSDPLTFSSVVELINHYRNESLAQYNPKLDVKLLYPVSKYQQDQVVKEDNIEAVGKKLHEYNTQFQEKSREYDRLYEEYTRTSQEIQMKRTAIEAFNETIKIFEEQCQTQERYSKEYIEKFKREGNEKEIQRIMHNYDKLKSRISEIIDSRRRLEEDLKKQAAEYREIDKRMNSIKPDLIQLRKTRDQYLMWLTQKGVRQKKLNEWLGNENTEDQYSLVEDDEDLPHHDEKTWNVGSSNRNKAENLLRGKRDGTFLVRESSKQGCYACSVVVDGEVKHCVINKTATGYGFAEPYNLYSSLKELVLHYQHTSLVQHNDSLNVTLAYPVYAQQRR
Description: HTRF assay, potency against active PI3Kβ. The format is biochemical. As to conditions: [ATP]=50 μM, [di-C8-PIP2]=10 μM, 30 min pre-incubation, read-out: PI3Kβ Inhibition. Here is the method: Homogeneous Time Resolved Fluorescence (HTRF) Assay Protocol for Potency Assessment Against the Active Forms of PI3Kα, PI3Kβ, and PI3Kγ
The mechanics of the assay platform are best described by the vendor (Millipore, Billerica, Mass.) on their website at the following URL: www.millipore.com/coa/tech1/74jt4z.
Briefly, Stop solution (Stop A, #33-007 and Stop B, #33-009; 3:1 ratio) and Detection Mix (from DMC, #33-015 with DMA, #33-011 and DMB, #33-013; 18:1:1 ratio) were prepared as recommended by the manufacturer about 2 hrs prior to use. […] Lipid kinase reactions were started with the addition of 5 μL of ATP solution, mixed for 15 sec on a rotary plate shaker and incubated for 30-60 minutes at 25° C. Next, reactions were stopped with a 5 μL addition of Stop solution immediately followed by a 5 μL volume of Detection Mix. […] At the conclusion of each assay, the HTRF ratio from fluorescence emission values for each well was calculated and % Inhibition determined from averaged controls wells (+/−PI3K enzyme). % Inhibition values for each compound were then plotted against inhibitor concentration to estimate IC50 from log [Inhibitor] vs Response, Variable Slope model in GraphPad Prism from GraphPad Software (San Diego, Calif.).

Assay [3] relates to Phospho-Akt(Ser473). Description: Dose response in SKOV3 cells as determined by in-cell Western. The format is cell-based. The procedure, abridged: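 SKOV3 cells treated with compound for 1 hr, then formaldehyde-fixed, permeabilised and stained overnight for phospho-Akt(Ser473) with anti-tubulin as a reference. Infrared secondary antibodies read at 680 and 800 nm channels by in-cell Western imaging.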

Another assay deals with T3, PI3Kα (p110α/p85α) (Homo sapiens, UniProt P42336).
T3 construct: purchased BPS Bioscience (San Diego, Calif.) or Millipore (Billerica, Mass.)
T3 sequence (P42336 whole entry): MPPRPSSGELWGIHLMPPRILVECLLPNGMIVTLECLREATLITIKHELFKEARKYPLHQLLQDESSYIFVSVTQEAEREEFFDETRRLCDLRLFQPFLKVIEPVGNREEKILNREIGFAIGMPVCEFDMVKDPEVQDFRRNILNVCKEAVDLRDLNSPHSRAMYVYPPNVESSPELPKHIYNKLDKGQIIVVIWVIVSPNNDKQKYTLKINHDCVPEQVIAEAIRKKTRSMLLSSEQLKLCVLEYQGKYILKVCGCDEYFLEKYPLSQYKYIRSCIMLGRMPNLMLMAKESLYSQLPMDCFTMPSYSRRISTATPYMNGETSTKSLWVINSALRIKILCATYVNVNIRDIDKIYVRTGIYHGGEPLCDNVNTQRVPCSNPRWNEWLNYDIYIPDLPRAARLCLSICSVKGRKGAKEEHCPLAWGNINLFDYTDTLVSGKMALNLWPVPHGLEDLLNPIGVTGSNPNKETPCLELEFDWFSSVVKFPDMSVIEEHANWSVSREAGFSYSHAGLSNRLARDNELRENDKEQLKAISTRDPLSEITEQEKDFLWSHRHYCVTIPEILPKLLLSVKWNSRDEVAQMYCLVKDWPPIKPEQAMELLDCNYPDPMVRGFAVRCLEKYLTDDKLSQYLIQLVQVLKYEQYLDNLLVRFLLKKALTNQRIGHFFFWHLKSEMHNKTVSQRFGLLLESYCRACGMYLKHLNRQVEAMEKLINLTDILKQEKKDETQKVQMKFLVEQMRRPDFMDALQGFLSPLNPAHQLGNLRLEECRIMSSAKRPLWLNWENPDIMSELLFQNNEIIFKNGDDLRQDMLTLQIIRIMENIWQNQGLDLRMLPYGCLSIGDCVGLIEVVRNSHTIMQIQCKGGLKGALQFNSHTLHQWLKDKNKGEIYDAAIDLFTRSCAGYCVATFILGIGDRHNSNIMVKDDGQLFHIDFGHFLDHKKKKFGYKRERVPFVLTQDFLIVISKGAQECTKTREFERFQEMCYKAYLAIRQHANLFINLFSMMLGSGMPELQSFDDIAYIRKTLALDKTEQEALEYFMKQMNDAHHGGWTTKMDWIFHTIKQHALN
T3 sequence (P27986 whole entry partner): as the sequence (P27986 whole entry partner) above
Description: HTRF assay, potency against active PI3Kα. It counts as biochemical. As to conditions: HTRF; [ATP]=50 μM, [di-C8-PIP2]=10 μM; 30 min pre-incubation; read-out: PI3Kα Inhibition. The procedure, abridged: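 IC50 came from a variable-slope fit of % inhibition, calculated from the HTRF emission ratio relative to wells with and without enzyme. Reactions with the active enzyme complex ran 30-60 minutes at 25 °C after ATP addition before stop and detection reagents.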

The next assay has as its system HCT116 cells. Description: HCT-116 cell proliferation assay. It counts as cell-based. The conditions noted are these: Homo sapiens, 72 hours, Cell Titer Glo. Here is the method:
HCT-116 Cell Proliferation Assay
For the HCT116 Proliferation Assay, 3000 cells per well were plated in Growth Media (DMEM, 10% FBS, 1% 1-glutamine, 1% penicillin/streptomycin) in 96 well plates. The following day, compounds were added to duplicate wells at concentrations of 10 uM and 3-fold dilutions down to 40 nM. The plates were returned to the incubator for 72 hours and then the assays were developed using Cell Titer Glo (Promega, Madison, Wis.) according to manufacturer's instructions.

The test system of a further assay is PI3K. The assay is described as follows: PI3K HCT116 cellular assay (Western blot). The format is cell-based. The conditions noted are these: Homo sapiens, HCT-116, HCT116 colon cancer cells, 1 hour incubation, read-out: PI3K Inhibition. Here is the method: PI3K HCT116 Cellular Assay
Selected compounds were assayed in HCT116 colon cancer cells. […] Cells were then washed with PBS, lysed and the protein lysates were then recovered and analyzed by Western blot.

Another assay relates to SK-OV-3 cells. Description: SK-OV-3 cell proliferation assay. The format is cell-based. The conditions noted are these: Homo sapiens; SK-OV-3 proliferation, 72 hours, Cell Titer Glo. Here is the method: SK-OV-3 Cell Proliferation Assay
For the SK-OV-3 proliferation Assay, 5000 cells per well were plated in Growth Media (DMEM, 10% FBS, 1% 1-glutamine, 1% penicillin/streptomycin) in 96 well plates. The following day, compounds were added to duplicate wells at concentrations of 10 uM and 3-fold dilutions down to 40 nM. The plates were returned to the incubator for 72 hours and then the assays were developed using Cell Titer Glo (Promega, Madison, Wis.) according to manufacturer's instructions.

A further assay relates to SKOV-3 tumors. Description: Tumor growth inhibition in vivo. The conditions noted are these: nude mice, subcutaneous SKOV-3 tumors; GDC-941 orally, II-a-3 I.P., 50-100 mg/Kg/QD, 21 days. Here is the method: Tumor Growth Inhibition In Vivo
The in vivo experiment was performed at Piedmont Research Center (Research Triangle Park, N.C.). Nude mice were implanted with SKOV-3 tumors subcutaneously. […] Dosing continued for 21 days. Tumor volume was measured twice a week.

For assay [4], the target named is T1, PI3Kα. The assay is described as follows: Trypsin digest and MS-MS analysis of compound-treated PI3Kα. The format is binding. On the set-up: purchased Millipore 14-602. The conditions noted are these: in-gel trypsin digest. Here is the method:
(§1) The PI3Kα protein band was then excised and subjected to an in-gel trypsin digest by reducing the protein with DTT, alkylating the thiols with iodoacetamide, and then incubating the protein gel band with trypsin overnight in a 37° C. water bath. The digest was then stopped by addition of trifluoroacetic acid, and peptides were removed from gel band by sonicating with increasing amounts of acetonitrile (0%, 30%, & 60%). Peptides were then purified using C18 ziptips, spotted on the MALDI target plate with α-cyano-4-hydroxycinnamic acid as the desorption matrix (10 mg/ml in 0.1% TFA:Acetonitrile 50:50), and analyzed in reflectron mode.
as §1, with “trifluoro acetic” for “trifluoroacetic”

[5] abbreviates: SKOV3 cells, 96 hours, Cell Titer Glo.
Setting [6] is: Homo sapiens, SK-OV-3, SKOV3 cells, 1 hr, read-out: pAKT Inhibition in cell Western.

Entries after “also recorded” stand apart in the source; their conditions may differ.

T1 sequence (P42336 whole entry): as the sequence (P42336 whole entry) above
T1 sequence (P27986 whole entry partner): as the sequence (P27986 whole entry partner) above
Chain of p110alpha (P42336 whole entry): as the sequence (P42336 whole entry) above
Description for p110alpha: 150 ug of protein sample was added to a 0.2 ml tube and the volume brought up to 100 ul with IP Buffer from the Protein A/G Plate IP Kit (Pierce Biotechnology, Rockford, Ill.). XIV-a-3 was added at a concentration of 1 uM or XIV-a-4 was added at 50 nM and the tube was incubated at room temperature with rocking for 1 hr.
Protein A/G coated wells from the Protein A/G Plate IP Kit were washed 3× with 200 ul of IP Buffer. […] After incubating at room temperature with shaking for 1 hour, the wells were washed 5× with 200 ul of IP Buffer and the protein samples, preincubated with XIV-a-3, were added to the wells. The wells were incubated overnight at 4° C. with shaking.
The next morning, the wells were washed 5× with 200 ul of IP Buffer. The last wash was allowed to stand for 5 minutes before removal. The immuoprecipitate was eluted from the plate with 40 ul of Pierce Elution Buffer for 30 seconds, after which time the eluate was moved to a 1.5 ml tube containing 4 ul of Pierce Neutralization Buffer. 15 ul of NuPAGE LDS Sample Buffer and 6 ul of NuPAGE Sample Reducing Agent (Invitrogen, Carlsbad, Calif.) were added to each tube and the samples were incubated at 70° C. for 5 minutes.
The blot was rinsed once in water, then incubated for 2 minutes in Qentix Solution 1 (Pierce Biotechnology) followed by 5 rinses in water. The blot was then incubated for 10 minutes in Qentix solution 2, rinsed 5 times in water then blocked in Odyssey Blocking Buffer (Li-Cor) for an hour.
The blot was then incubated overnight at 4° C. with rabbit anti-p110 alpha antibody (Epitomics, Burlingame, Calif.) diluted 1:2500 in PBS/Odyssey Buffer (1:1)+0.1% Tween-20. […]
The blots were washed 2 times for 5 minutes in PBS+0.2% Tween-20, once in distilled water, then scanned on an Odyssey machine (Li-Cor, Lincoln, Nebr.). Band intensity was determined using the Odyssey software and streptavidin (Tool) signal was normalized to total p110 alpha signal within samples, then expressed as a percentage of the untreated signal.

With `C=CC(=O)Nc1ccc(CCNC(=O)c2cc3nc(-c4cccc5[nH]ncc45)nc(N4CCOCC4)c3s2)cc1` [II-a-148, N-(4-acrylamidophenethyl)-2-(1H-indazol-4-yl)-4-morpholinothieno[3,2-d]pyrimidine-6-carboxamide], the GI50 with SKOV3 cells (setting [5]) is 10 to 100 nM; in the assay on SKOV3 cells (Table 19, assay not given, classes agree with Table 26), 10 to 100 nM. Moreover, the “covalent modification of PI3Kα” value at PI3Kα [1] is “complete modification; also recorded: covalent modification”. Also, on PI3Kα [1], the “mass shift of PI3Kα” value was determined as 472 Da. The “mass shift of PI3Kα, per cent in brackets” value at PI3Kα [1] was 85%. For the same molecule, the “target occupancy (competition with the covalent probe)” value on p110alpha was “Dose-dependent target occupancy”. Moreover, the EC50 was about 40 nM at p110alpha (read-out: EC50 for occupying p110alpha, covalent probe XIV-a-3 or XIV-a-4); at most 10 nM in the assay on Phospho-Akt(Ser473) [2]; 10 to 100 nM in the assay with Phospho-Akt(Ser473) [3] (setting [6]); 10 to 100 nM in the assay on Phospho-Akt(Ser473) [3] (Homo sapiens, SK-OV-3, Table 18, assay not given, classes agree with Table 23, read-out: EC50 pAkt^Ser473); 10 to 100 nM in the assay with Phospho-Akt(Ser473) [3] (Table 19, assay not given, classes agree with Table 23, read-out: EC50 pAkt^Ser473). For the same molecule, the “Prolonged PD” value in the assay with PI3 kinase (Table 18) and in the assay with PI3 kinase (Table 19) was “Yes” each time. Moreover, the IC50 was over 1000 nM at PI3Kβ (p110β/p85α) and 100 to 1000 nM at PI3Kα (p110α/p85α).

Take `CS(=O)(=O)N1CCN(Cc2cc3nc(-c4cccc5[nH]ncc45)nc(N4CCOCC4)c3s2)CC1` [GDC-941, reference compound]: the EC50 is 1000 to 10000 nM in the assay on HCT116 cells, […] in the assay on PI3K and 1000 to 10000 nM in the assay on SK-OV-3 cells. The “target occupancy (competition with the covalent probe)” value at p110alpha is given as “does not compete with the covalent probe”. Moreover, the “Prolonged PD” value with PI3 kinase (Table 19) is given as “No”. In addition, the tumor growth entry in the assay with SKOV-3 tumors is reported as “Inhibition of tumor growth”.

Turning to `C=CC(=O)Nc1ccc(C(=O)N2CC=C(c3cc4nc(-c5cccc6[nH]ncc56)nc(N5CCOCC5)c4s3)CC2)cc1` [II-a-144, N-(4-(4-(2-(1H-indazol-4-yl)-4-morpholinothieno[3,2-d]pyrimidin-6-yl)-1,2,3,6-tetrahydropyridine-1-carbonyl)phenyl)acrylamide], in the assay with SKOV3 cells (setting [5]), the GI50 was in the range of 100 to 1000 nM. Further, at PI3Kα [1], the “covalent modification of PI3Kα” value was “complete modification; also recorded: covalent modification”; the “mass shift of PI3Kα” value was determined as 575 Da; the “mass shift of PI3Kα, per cent in brackets” value amounted to 97%. The “site on PI3Kα that is covalently modified” value at PI3Kα [4] is “Cys-862; also recorded: peptide ^853NSHTIMQIQCK^863”. The IC50 at PI3Kβ (p110β/p85α) fell in the range of 100 to 1000 nM. In addition, in the assay on Phospho-Akt(Ser473) [3] (setting [6]), the EC50 lay within 100 to 1000 nM. The IC50 on PI3Kα (p110α/p85α) was 100 to 1000 nM.

These data come from US20110230476A1, “PI3 KINASE INHIBITORS AND USES THEREOF” (AVILA THERAPEUTICS, INC., priority 2009, published 2011).
